Measured values published in US9555057B2, “Compositions and methods for reducing cutaneous microbiome malodor” (The Research Foundation for The State University of New York, priority 2014, dated 2017).

How the values were obtained:
[1] = test system: Staph. epidermidis (ATCC 12228); assay: Kirby-Bauer disk diffusion susceptibility test; assay type: cell-based, Staphylococcus epidermidis; settings: at either 1% or 5%
Source text: (§1) C. striatum and Staph. epidermidis are among the most prevalent bacteria that comprise the human cutaneous microbiota. […] The purpose of this segment was to examine whether formulations arising out of the studies reported in the prior sections that favor the growth and metabolism of Staph. epidermidis as a desirable skin entity that can inhibit the growth of C. striatum, a less desirable entity, and do so when both microorganisms are present initially at the same levels. In this regard, an adaptation of the Kirby-Bauer disk diffusion susceptibility test appeared to be relevant for such determination.
(§2) Here we have grown less than desirable C. striatum and highly desirable Staph. epidermidis, alone and in combination, under a variety of substrate conditions to determine, if the latter micro-organism could be selected over C. striatum and thereby be used as a means of reducing the presence of less desirable odor-producing C. striatum.
(§3) Compositions indicated as possible suppressants of C. striatum and/or enhancers of Staph. epidermidis were based on the prior studies above and for convenience of presentation were categorized as possible active test ingredients and then formulae and mixtures in which they were tested. Accordingly, the total number of compositions tested was eight. Careful attention was paid to sterility throughout in the preparation and handling of the compounds and compositions utilized herein.
(§4) Each of these formulae were prepared at 4 different concentrations: original as in (b), and 1.5, 2.5 and 7.5 times the original concentration. Again, all formulae were prepared under aseptic conditions.
To make compositions 1.5 times the original concentration listed above, formulae 7.5 times the original concentrations were diluted a factor of 5 with sterile distilled water. […]
Each strain was determined as resistant, intermediate, or susceptible to the ingredients, formulae and mixtures tested. After 24 hours of incubation at 37° C., the diameter of the zone of growth inhibition around each disk was measured to the nearest whole mm. […]

[2] = test system: C. striatum, Staph. epidermidis or a 1:1 mixture thereof; settings: zinc acetate, CIL and either arginine or arginine bicarbonate, pH 4.0 to 8.0, 4 hours, no phenylalanine
Source text: The pH of the medium with each of the different zinc salts needed some adjustment, which was done with 1 M HCl or 1 M NaOH depending upon the pH of the stock solutions of each zinc salt employed.

[3] = test system: C. striatum, Staph. epidermidis and a mixture of the two; assay: Growth (colony counts on BHI agar) during 72 hour incubation with CIL, phenylalanine, zinc carbonate with or without arginine bicarbonate; assay type: cell-based
Protocol: The bacterial sediments produced upon centrifugation and decantation of the supernatants were stirred and made into a uniform suspension. C. striatum and Staph. epidermidis were mixed with each of C. striatum and Staph. epidermidis at 25% (v/v).
Zinc carbonate was autoclaved and suspended in sterile distilled water. All other stock solutions were sterilized by microbial filtration (Nylon, Sterile filter, pore size […], Fisher Scientific, Fairlawn, N.J. USA).
Difco BHI agar was poured into petri dish plates under sterile conditions and pre-incubated at 37° C. for 24 hours before use to ensure sterility.
The experimental and negative control samples were prepared as follows:
The final concentrations of the bacteria, C. striatum and Staph. epidermidis were each 8.3% (v/v) and the mixture of C. striatum and Staph. epidermidis were 4.15% (v/v) each.
Serial dilution of each of the samples between 10^0 and 10^10 was made. An aliquot of 100 μl from each 10^0 to 10^10 dilution was inoculated onto BHI agar plates. […] Bacterial growth was regularly checked. This was the initial test before the incubation was started.
Four successive diluted samples were selected and grown to proper densities of bacterial colonies on the agar plates; for example, 10^4 to 10^7 were appropriate dilutions for all samples in the instant experiment. Incubation of all samples (experimental and control) were continued at 37° C. for 24, 48 or 72 hours; 100 μl of each sample were taken and chosen at 4 consequent dilutions and inoculated on BHI agar plates for incubation for 24, 48 and 72 hours, respectively. Plating on BHI agar plates and incubation at 37° C. for 24 to 48 hours were carried out and bacterial growth on the BHI agar plates were checked.
The number of bacterial colonies on each plate was assessed. The plates inoculated with the mixture of C. striatum and Staph. epidermidis (i.e., Samples I and IV in the Table of Media compositions above) were counted and the number of colonies of C. striatum and Staph. epidermidis were determined from the photos of the plates.

C. striatum (ATCC 43751) = assay: Kirby-Bauer disk diffusion susceptibility test; assay type: cell-based, Corynebacterium striatum; settings: at either 1% or 5% levels
Source text: as §1, §2, §3, §4
To make compositions 1.5 times the original concentration listed above, formulae 7.5 times the original concentrations were diluted a factor of 5 with sterile distilled water. To make compositions 2.5 times the original concentration listed above, formulae 7.5 times the original concentrations were diluted three-fold with sterile distilled water. To summarize: a total of 3 ingredients, 2 formulae and 2 mixtures were tested. A total of 20 disks were prepared for tests of susceptibility to each bacterial sample and these are outlined in Table 5.2 below:
A TB syringe with a 25-27 G sterile needle was used to help break up the remains of any pellets. […] Plating Procedures • Five bacterial samples of C. striatum and Staph. epidermidis were plated on Blood BHI agar and CHROMagar plates, respectively. • 100 μl of each bacterial sample was inoculated on Blood BHI agar plates by using sterile glass bars and a turning table to facilitate each bacterial sample being spread evenly on each of the agar plates. • Each spread bacterial suspension was allowed to dry on inoculated plates for five minutes. • Paper disks were immersed, respectively, with the above 3 ingredients, 2 formulae and 2 mixtures; absorptions were saturated. • Four disks were placed on each plate with sterile forceps. • Incubated plates within 15 minutes after applying the disks to ensure test was under standardized conditions, where diffusion of the ingredients and formulae and bacterial growth commence at approximately the same time. Plates were incubated at 37° C. for 24 hours. Interpretation of Results
Each strain was determined as resistant, intermediate, or susceptible to the ingredients, formulae and mixtures tested. After 24 hours of incubation at 37° C., the diameter of the zone of growth inhibition around each disk was measured to the nearest whole mm. Plates were carefully examined for well-developed colonies within the zone of inhibition.

[4] = test system: mixture of C. striatum and Staph. epidermidis in the ratio of 1 to 1; assay: Zinc carbonate / arginine bicarbonate on odor and pH, CIL and phenylalanine medium; assay type: cell-based; settings: for pH after incubation: arginine bicarbonate with zinc carbonate
[5] = pH and solubility of solutions, suspensions and formulae; assay type: physicochemical; settings: 36 mM (zinc acetate and zinc carbonate also 72 mM)
P. avidum = assay: Arginolysis: pH during incubation with arginine; assay type: cell-based, Propionibacterium avidum; settings: 6.0 mM arginine
Protocol: (§5) Each microorganism was recovered from its frozen state at −70° C. and grown at 37° C. in 10 ml of appropriate and respective culture media for a period between 24 and 48 hours (see Table 1). Incubations were carried out to middle and late exponential stages of bacterial growth under the incubation conditions indicated in Table 1. A 1.5 ml inoculum was transferred therefrom to polypropylene bottles containing 150 ml of the initial growth medium. This was then incubated at 37° C. for 24 to 48 hours. Bacteria were harvested by centrifugation (DuPone, Sorvall, Newtown, Conn.) at 10,000 g and 4° C. for 20 min. The volume of bacterial pellet obtained was between about 2.5 and 3.5 ml. The sediment was then washed with sterile distilled water to remove residual growth medium. This was done by centrifuging the bacterial sediment three times at 1,740 g for 15 min at 4° C. […]

[6] = test system: pure cultures of microorganisms resident on human axillary skin; settings: 6.0 mM arginine; Staph. epidermidis, Staph. haemolyticus and P. avidum
Protocol: Pure cultures of the numerically most prominent microorganisms normally resident on human axillary skin (see Table 1) were surveyed for their effects on (i) pH, (ii) Eh, (iii) ability to generate malodor and (iv) ability to generate hydrogen peroxide. Four hour incubation experiments were conducted, in which each of a wide range of carbohydrate and amino acid substrates (see Table 1) were surveyed for malodor production and related changes in pH and Eh thereto.
Each microorganism was recovered from its frozen state at −70° C. and grown at 37° C. in 10 ml of appropriate and respective culture media for a period between 24 and 48 hours (see Table 1). Incubations were carried out to middle and late exponential stages of bacterial growth under the incubation conditions indicated in Table 1. A 1.5 ml inoculum was transferred therefrom to polypropylene bottles containing 150 ml of the initial growth medium. This was then incubated at 37° C. for 24 to 48 hours. Bacteria were harvested by centrifugation (DuPone, Sorvall, Newtown, Conn.) at 10,000 g and 4° C. for 20 min. […] The sediment was then washed with sterile distilled water to remove residual growth medium. This was done by centrifuging the bacterial sediment three times at 1,740 g for 15 min at 4° C.
Each pure culture was pre-incubated at 37° C. at pH 7.0 to exhaust or reduce any stored carbohydrate and other carbon/energy sources acquired during growth in culture.
Both of these electrodes were connected to a second pH meter (pH M26 Radiometer Copenhagen NV, Denmark) and used here as a millivoltmeter. For the Eh measurements, when the Eh electrode was immersed in an incubation mixture, each Eh reading was recorded after allowing several seconds for each reading to stabilize. The Eh value was related to that of the hydrogen electrode by adding to each reading the difference between the E0 value for the Red Rod reference element-mercury and hydrogen electrodes—i.e. 270 my at 25° C.
At each time point, the odor was determined organoleptically by immersing a solid glass rod into each incubation mixture, stirring gently 3 times and then removing and carefully smelling the rod after 5 seconds. The intensity of the odor was assessed on a 0 to 4 numerical scale (0—no odor, 1—mild odor, 2—moderate odor, 3—strong odor, and 4—very strong odor).

Staph. haemolyticus = assay: Arginolysis: pH during incubation with arginine; assay type: cell-based, Staphylococcus haemolyticus; settings: 6.0 mM arginine, 4 hours
Protocol: as §5

Staph. epidermidis = assay: Arginolysis: pH during incubation with arginine; assay type: cell-based, Staphylococcus epidermidis; settings: 6.0 mM arginine
Protocol: as §5

SMILES: N=C(N)NCCC[C@H](N)C(=O)O.O=C(O)O [Arginine bicarbonate, arginine bicarbonate]
- Sensitivity of Staph. epidermidis (in words) [1]: neither C. striatum nor Staph. epidermidis was susceptible
- Sulfurous odor and Eh [2]: No sulfurous odor nor corresponding decrease in the Eh
- Decrease of number of colonies ([3]; 12 mM zinc carbonate, CIL, phenylalanine, with versus without 12 mM arginine bicarbonate, 37° C., 72 hours): without arginine bicarbonate decreased sooner
- Colonies found in the mixture ([3]; media with arginine bicarbonate, 48 and 72 hours): Only colonies of Staph. epidermidis were discovered
- Staph. epidermidis share of colonies in the mixture ([3]; media with arginine bicarbonate, 24 hours, 65% at 0 hours): 90%
- Sensitivity of C. striatum (in words) (C. striatum (ATCC 43751)): neither C. striatum nor Staph. epidermidis was susceptible
- pH maintained ([4]; 12.0 mM arginine bicarbonate, CIL and phenylalanine, 37° C., 4 hours): about 8.0
- pH after incubation ([4]; medium originally at pH 6.0): 6.8
- pH after incubation ([4]; medium originally at pH 7.0): 7.8
- pH after incubation ([4]; medium originally at pH 8.0): 8.0

SMILES: [Cl-].[Cl-].[Zn+2] [Zinc chloride]
- pH of stock solution in de-ionized water [5]: 6.7

SMILES: N=C(N)NCCC[C@H](N)C(=O)O [arginine]
- pH rise above the level with Staph. epidermidis (P. avidum): about 0.3 pH units
- Odor during arginolysis [6]: No odor of significance
- pH reached during arginolysis (Staph. haemolyticus): 8.2
- Sulfurous odor and Eh [2]: No sulfurous odor nor corresponding decrease in the Eh
- pH of the incubation mixture (Staph. epidermidis; end of the 4 hours of incubation): 7.7
- pH of the incubation mixture (Staph. epidermidis; start pH 7.0, within the first 15 min): 7.4
